Blank lines part the entries; values can stand above or below the compound they belong to. Activity calls are given as the source filed them. The calls are words filed in the database; no cut-off is given here.
How the values were obtained:
MCF7 [1] = assay: Anticancer activity against human MCF7 cells assessed as cell growth inhibition incubated for 24 hrs by alamar blue assay; format: functional, cell-based; conditions: MCF7, 24 h
T47D [2] = assay: Anticancer activity against human T47D cells harbouring ERalphaY537S mutant assessed as cell growth inhibition incubated for 24 hrs by alamar blue assay; format: functional, cell-based
T47D [3] = assay: Anticancer activity against human T47D cells harbouring ERalphaD538G mutant assessed as cell growth inhibition incubated for 24 hrs by alamar blue assay; format: functional, cell-based
MCF7 [4] = assay: Anticancer activity against human MCF7 cells assessed as reduction in cell viability incubated for 24 hrs in presence of 10% CD-FBS by alamar blue assay; format: functional, cell-based
MCF7 [5] = assay: Anticancer activity against ERalpha positive human MCF7 cells assessed as cell growth inhibition incubated for 72 hrs by alamar blue assay; format: functional, cell-based; conditions: MCF7, 72 h
T47D [6] = assay: Anticancer activity against ERalpha positive human T47D cells assessed as cell growth inhibition incubated for 24 hrs by alamar blue assay; format: functional, cell-based
MDA-MB-436 [7] = assay: Anticancer activity against ERalpha negative human MDA-MB-436 cells assessed as cell growth inhibition incubated for 24 hrs by alamar blue assay; format: functional, cell-based; conditions: MDA-MB-436, 24 h
MDA-MB-231 [8] = assay: Anticancer activity against ERalpha negative human MDA-MB-231 cells assessed as cell growth inhibition incubated for 24 hrs by alamar blue assay; format: functional, cell-based; conditions: MDA-MB-231, 24 h
MDA-MB-231 [9] = assay: Anticancer activity against ERalpha negative human MDA-MB-231 cells assessed as cell growth inhibition incubated for 72 hrs by alamar blue assay; format: functional, cell-based; conditions: MDA-MB-231, 72 h
MDA-MB-231 [10] = assay: Anticancer activity against ERalpha negative human MDA-MB-231 cells assessed as cell growth inhibition incubated for 168 hrs by alamar blue assay; format: functional, cell-based; conditions: MDA-MB-231, 168 h
MDA-MB-436 [11] = assay: Anticancer activity against ERalpha negative human MDA-MB-436 cells assessed as cell growth inhibition incubated for 72 hrs by alamar blue assay; format: functional, cell-based; conditions: MDA-MB-436, 72 h
HCT-116 [12] = assay: Anticancer activity against ERalpha negative human HCT-116 cells assessed as cell growth inhibition incubated for 24 hrs by alamar blue assay; format: functional, cell-based; conditions: HCT-116, 24 h
HCT-116 [13] = assay: Anticancer activity against ERalpha negative human HCT-116 cells assessed as cell growth inhibition incubated for 72 hrs by alamar blue assay; format: functional, cell-based; conditions: HCT-116, 72 h
HCT-116 [14] = assay: Anticancer activity against ERalpha negative human HCT-116 cells assessed as cell growth inhibition incubated for 168 hrs by alamar blue assay; format: functional, cell-based; conditions: HCT-116, 168 h
HT-29 [15] = assay: Anticancer activity against ERalpha negative human HT-29 cells assessed as cell growth inhibition incubated for 24 hrs by alamar blue assay; format: functional, cell-based; conditions: HT-29, 24 h
HT-29 [16] = assay: Anticancer activity against ERalpha negative human HT-29 cells assessed as cell growth inhibition incubated for 72 hrs by alamar blue assay; format: functional, cell-based; conditions: HT-29, 72 h
[17] = Selectivity ratio of IC50 for human MDA-MB-231 cells to IC50 for human MCF7 cells; format: functional
[18] = Selectivity ratio of IC50 for human MDA-MB-436 cells to IC50 for human MCF7 cells; format: functional
[19] = Selectivity ratio of IC50 for human HCT-116 cells to IC50 for human MCF7 cells; format: functional
[20] = Selectivity ratio of IC50 for human HT-29 cells to IC50 for human MCF7 cells; format: functional
[21] = Cmax in CD-1 mouse at 20 mg/kg, iv by LC-MS/MS analysis; format: ADME, organism-based; design: dose 20 mg/kg, route iv; conditions: CD-1, mouse, in vivo, read-out: Cmax
[22] = Oral bioavailability in CD-1 mouse at 40 mg/kg by LC-MS/MS analysis; format: ADME, organism-based; conditions: in vivo
[23] = Stability of the compound in simulated gastric fluid assessed as half life measured upto 120 mins by LC-MS/MS analysis; format: ADME
[24] = AUC in CD-1 mouse at 20 mg/kg, iv by LC-MS/MS analysis; format: ADME, organism-based; design: dose 20 mg/kg, route iv; conditions: CD-1, mouse, in vivo, read-out: AUC
[25] = Half life in CD-1 mouse at 20 mg/kg, iv by LC-MS/MS analysis; format: ADME, organism-based; conditions: CD-1, mouse, in vivo
[26] = MRT in CD-1 mouse at 20 mg/kg, iv by LC-MS/MS analysis; format: ADME, organism-based; conditions: CD-1, mouse, in vivo, read-out: MRT
[27] = Clearance in CD-1 mouse at 20 mg/kg, iv by LC-MS/MS analysis; format: ADME, organism-based; conditions: in vivo
[28] = Volume of distribution at steady state in CD-1 mouse at 20 mg/kg, iv by LC-MS/MS analysis; format: ADME, organism-based; conditions: CD-1, mouse, in vivo, read-out: Vdss
[29] = Toxicity in po dosed CD-1 mouse assessed as maximum tolerated dose administered as single dose; format: organism-based; conditions: in vivo
[30] = Toxicity in iv dosed CD-1 mouse assessed as maximum tolerated dose administered as single dose; format: organism-based; conditions: in vivo
[31] = Toxicity in iv dosed Sprague-Dawley rat assessed as maximum tolerated dose administered as single dose; format: organism-based; conditions: in vivo
MCF7 [32] = assay: Antitumor activity against human MCF7 cells xenografted in athymic nude mouse assessed as reduction in tumor growth at 5 mg/kg, iv administered once a week for three doses administered for 14 days; format: functional, organism-based; conditions: time 14.0 day
[33] = Toxicity in athymic nude mouse xenografted with human MCF7 cells assessed as change in body weight at 5 mg/kg, iv administered once a week for three doses administered for 14 days; format: organism-based; conditions: in vivo, 336 h, time 14 day
MCF7 [34] = assay: Anticancer activity against human MCF7 cells assessed as reduction in cell viability incubated for 24 hrs in presence of 10% CD-FBS and 17-beta-estradiol by alamar blue assay; format: functional, cell-based
[35] = Stability of the compound in simulated gastric fluid assessed as compound remaining measured after 120 mins by LC-MS/MS; format: ADME; conditions: read-out: Stability

Compound: O=C1Nc2c(C(F)(F)F)cccc2[C@]1(c1ccc(O)cc1)C1CCC(F)(F)CC1
IC50 (T47D [2]): 7 nM
IC50 (MCF7 [1]): 17 nM
IC50 (T47D [3]): 9 nM
Activity (MCF7 [4]): Active
IC50 (MCF7 [5]): 17 nM
IC50 (T47D [6]): 16 nM
IC50 (MDA-MB-436 [7]): 64000 nM
IC50 (MDA-MB-231 [8]): 55000 nM
IC50 (MDA-MB-231 [9]): 55000 nM
IC50 (MDA-MB-231 [10]): 33000 nM
IC50 (MDA-MB-436 [11]): 55000 nM
IC50 (HCT-116 [12]): 55000 nM
IC50 (HCT-116 [13]): 55000 nM
IC50 (HCT-116 [14]): 42000 nM
IC50 (HT-29 [15]): 33000 nM
IC50 (HT-29 [16]): 27000 nM
Ratio IC50 [17]: 1900
Ratio IC50 [18]: 3200
Ratio IC50 [19]: 3200
Ratio IC50 [20]: 1600
Cmax [21]: 14700 ng/mL
bioavailability [22]: 6%
half-life [23]: 56 min
AUC [24]: 6300 ng·h/mL
half-life [25]: 18 min
MRT [26]: 54 min
clearance [27]: 52 mL/min/kg
Vd [28]: 2.8 L/kg
MTD [29]: > 200 mg/kg
MTD [30]: 95 mg/kg
MTD [31]: > 50 mg/kg
Activity (MCF7 [32]): Active
Activity [33]: Non-Toxic
Activity (MCF7 [34]): Active
remaining at 2 h [35]: 13%

Compound: O=C1Nc2c(C(F)(F)F)cccc2C1(c1ccc(OC(F)(F)F)cc1)c1ccc(O)c(F)c1 (stereo not given)
IC50 (MCF7 [1]): 33 nM

Compound: O=C1Nc2c(C(F)(F)F)cccc2C1(c1ccc(OC(F)(F)F)cc1)c1ccc(O)c(O)c1 (stereo not given)
IC50 (MCF7 [1]): 49 nM

Compound: O=C1Nc2c(C(F)(F)F)cccc2C1(c1ccc(O)cc1)N1CCC(OC(F)(F)F)CC1 (stereo not given)
IC50 (MCF7 [1]): 135 nM

Compound: O=C1Nc2c(C(F)(F)F)cccc2[C@]1(c1ccc(OC(F)(F)F)cc1)c1ccc(O)c(O)c1
IC50 (MCF7 [1]): 24 nM

Compound: O=C1Nc2c(C(F)(F)F)cccc2C1(c1ccc(OC(F)(F)F)cc1)c1ccc(O)cc1F (stereo not given)
IC50 (MCF7 [1]): 177 nM

Compound: O=C1Nc2c(C(F)(F)F)cccc2C1(c1ccc(OC(F)(F)F)cc1)c1ccc(OC(F)(F)F)cc1
IC50 (MCF7 [1]): > 1000 nM

Second part, led by results:

IC50 (MCF7 [1]): > 1000 nM
Compound: O=C1Nc2c(C(F)(F)F)cccc2C1(c1ccc(O)cc1)N1CCOCC1 (stereo not given)

IC50 (MCF7 [1]): > 1000 nM
Compound: O=C1Nc2c(C(F)(F)F)cccc2C1(c1ccc(O)cc1)N1CCC(O)CC1 (stereo not given)

IC50 (MCF7 [1]): 39 nM
IC50 (MCF7 [5]): 33 nM
IC50 (MDA-MB-231 [8]): 49000 nM
IC50 (MDA-MB-231 [9]): 22000 nM
IC50 (HCT-116 [12]): 38000 nM
IC50 (HCT-116 [13]): 21000 nM
IC50 (HT-29 [15]): 29000 nM
IC50 (HT-29 [16]): 25000 nM
remaining at 2 h [35]: 0%
Compound: O=C1Nc2c(C(F)(F)F)cccc2[C@@]1(c1ccc(O)cc1)N1CCCC(F)(F)C1
Ratio IC50 [17]: 700
Ratio IC50 [19]: 600
Ratio IC50 [20]: 800

IC50 (MCF7 [1]): 70 nM
Compound: CC1CN(C2(c3ccc(O)cc3)C(=O)Nc3c(C(F)(F)F)cccc32)CCC1(F)F (stereo not given)

IC50 (MCF7 [1]): > 1000 nM
Compound: O=C1Nc2c(C(F)(F)F)cccc2C1(c1ccc(O)cc1)N1CCCCC1 (stereo not given)

IC50 (MCF7 [1]): > 1000 nM
IC50 (MCF7 [4]; MCF7, 24 h): > 1000 nM
IC50 (MCF7 [5]): > 1000 nM
Compound: O=C1Nc2c(C(F)(F)F)cccc2[C@]1(c1ccc(O)cc1)N1CC(F)(F)C(F)(F)C1
